Assay results reported in ChEMBL document CHEMBL3991601, “The target landscape of clinical kinase drugs” (Science, 2017).
The source made the active and inactive calls.

What was measured:
[1] = molecular target: Proto-oncogene tyrosine-protein kinase receptor Ret (Homo sapiens, UniProt P07949)
[2] = molecular target: Epidermal growth factor receptor (Homo sapiens, UniProt P00533)
[3] = molecular target: Hepatocyte growth factor receptor (Homo sapiens, UniProt P08581)
[4] = molecular target: T1, Inhibitor of nuclear factor kappa-B kinase subunit epsilon (Homo sapiens, UniProt Q14164)
T1 sequence (Q14164 whole entry): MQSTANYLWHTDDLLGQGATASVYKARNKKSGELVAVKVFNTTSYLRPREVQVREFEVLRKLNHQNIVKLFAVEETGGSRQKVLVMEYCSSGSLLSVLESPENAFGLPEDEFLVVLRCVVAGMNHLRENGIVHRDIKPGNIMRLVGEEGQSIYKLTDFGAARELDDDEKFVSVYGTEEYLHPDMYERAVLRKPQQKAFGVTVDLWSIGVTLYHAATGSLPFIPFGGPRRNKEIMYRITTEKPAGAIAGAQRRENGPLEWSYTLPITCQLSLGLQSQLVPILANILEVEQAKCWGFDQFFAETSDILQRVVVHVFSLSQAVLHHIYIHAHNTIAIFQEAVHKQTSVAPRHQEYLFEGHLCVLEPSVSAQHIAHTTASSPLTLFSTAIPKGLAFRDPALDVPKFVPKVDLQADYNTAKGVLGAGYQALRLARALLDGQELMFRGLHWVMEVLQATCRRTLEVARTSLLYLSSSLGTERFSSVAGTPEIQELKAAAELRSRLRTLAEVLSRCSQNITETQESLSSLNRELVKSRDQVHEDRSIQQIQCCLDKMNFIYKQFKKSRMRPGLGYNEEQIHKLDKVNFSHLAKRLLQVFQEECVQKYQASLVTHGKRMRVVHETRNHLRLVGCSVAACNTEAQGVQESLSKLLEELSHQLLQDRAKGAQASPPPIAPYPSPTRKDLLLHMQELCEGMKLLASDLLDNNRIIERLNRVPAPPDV

[5] = molecular target: T2, Eukaryotic translation initiation factor 5B (Homo sapiens, UniProt O60841)
T2 sequence (O60841 whole entry): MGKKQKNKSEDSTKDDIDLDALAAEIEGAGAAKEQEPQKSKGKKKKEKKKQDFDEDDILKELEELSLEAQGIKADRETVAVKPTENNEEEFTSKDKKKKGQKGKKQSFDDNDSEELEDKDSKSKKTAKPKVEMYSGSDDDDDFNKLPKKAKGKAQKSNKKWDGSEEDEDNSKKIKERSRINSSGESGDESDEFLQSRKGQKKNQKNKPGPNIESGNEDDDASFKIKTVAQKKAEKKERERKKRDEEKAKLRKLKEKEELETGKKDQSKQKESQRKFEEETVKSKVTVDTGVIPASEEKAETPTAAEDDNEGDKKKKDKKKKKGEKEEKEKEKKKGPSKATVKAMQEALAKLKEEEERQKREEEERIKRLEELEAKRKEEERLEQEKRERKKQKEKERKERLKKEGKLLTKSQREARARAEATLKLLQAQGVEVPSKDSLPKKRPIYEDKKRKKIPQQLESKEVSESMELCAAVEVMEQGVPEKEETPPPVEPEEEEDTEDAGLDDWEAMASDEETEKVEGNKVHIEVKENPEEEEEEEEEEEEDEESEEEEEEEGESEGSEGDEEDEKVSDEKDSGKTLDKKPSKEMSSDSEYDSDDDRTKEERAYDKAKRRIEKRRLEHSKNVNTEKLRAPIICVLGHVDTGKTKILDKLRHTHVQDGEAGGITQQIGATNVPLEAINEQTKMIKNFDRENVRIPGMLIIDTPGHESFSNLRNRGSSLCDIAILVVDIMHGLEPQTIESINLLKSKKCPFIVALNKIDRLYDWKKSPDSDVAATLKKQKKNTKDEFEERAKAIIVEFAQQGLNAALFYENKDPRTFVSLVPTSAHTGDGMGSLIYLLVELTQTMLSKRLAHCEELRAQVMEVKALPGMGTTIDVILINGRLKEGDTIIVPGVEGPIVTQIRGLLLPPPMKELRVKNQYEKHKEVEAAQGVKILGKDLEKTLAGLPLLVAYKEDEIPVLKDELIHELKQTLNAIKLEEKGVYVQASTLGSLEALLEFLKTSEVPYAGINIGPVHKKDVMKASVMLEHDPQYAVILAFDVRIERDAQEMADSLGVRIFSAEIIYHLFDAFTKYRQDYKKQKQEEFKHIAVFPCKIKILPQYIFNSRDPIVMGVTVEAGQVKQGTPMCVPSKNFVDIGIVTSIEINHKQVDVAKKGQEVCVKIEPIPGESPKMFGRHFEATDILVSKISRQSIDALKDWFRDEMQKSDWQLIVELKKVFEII

[6] = molecular target: Serine/threonine-protein kinase MRCK gamma (Homo sapiens, UniProt Q6DT37)
[7] = molecular target: Membrane-associated progesterone receptor component 1 (Homo sapiens, UniProt O00264)
[8] = molecular target: High affinity nerve growth factor receptor (Homo sapiens, UniProt P04629)
[9] = molecular target: T3, Adenine phosphoribosyltransferase (Homo sapiens, UniProt P07741)
T3 sequence (P07741 whole entry): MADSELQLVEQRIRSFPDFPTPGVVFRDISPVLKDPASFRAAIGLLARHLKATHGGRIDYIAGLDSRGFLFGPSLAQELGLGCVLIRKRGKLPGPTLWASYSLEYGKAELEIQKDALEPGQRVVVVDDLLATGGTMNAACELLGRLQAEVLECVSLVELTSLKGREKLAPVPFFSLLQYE

[10] = molecular target: Dual specificity testis-specific protein kinase 1 (Homo sapiens, UniProt Q15569)
[11] = molecular target: Serine/threonine-protein kinase N3 (Homo sapiens, UniProt Q6P5Z2)
[12] = molecular target: PAS domain-containing serine/threonine-protein kinase (Homo sapiens, UniProt Q96RG2)
Also: in the data inactive means no Kd found up to 30 µM.

Sequence of Hepatocyte growth factor receptor (P08581 whole entry): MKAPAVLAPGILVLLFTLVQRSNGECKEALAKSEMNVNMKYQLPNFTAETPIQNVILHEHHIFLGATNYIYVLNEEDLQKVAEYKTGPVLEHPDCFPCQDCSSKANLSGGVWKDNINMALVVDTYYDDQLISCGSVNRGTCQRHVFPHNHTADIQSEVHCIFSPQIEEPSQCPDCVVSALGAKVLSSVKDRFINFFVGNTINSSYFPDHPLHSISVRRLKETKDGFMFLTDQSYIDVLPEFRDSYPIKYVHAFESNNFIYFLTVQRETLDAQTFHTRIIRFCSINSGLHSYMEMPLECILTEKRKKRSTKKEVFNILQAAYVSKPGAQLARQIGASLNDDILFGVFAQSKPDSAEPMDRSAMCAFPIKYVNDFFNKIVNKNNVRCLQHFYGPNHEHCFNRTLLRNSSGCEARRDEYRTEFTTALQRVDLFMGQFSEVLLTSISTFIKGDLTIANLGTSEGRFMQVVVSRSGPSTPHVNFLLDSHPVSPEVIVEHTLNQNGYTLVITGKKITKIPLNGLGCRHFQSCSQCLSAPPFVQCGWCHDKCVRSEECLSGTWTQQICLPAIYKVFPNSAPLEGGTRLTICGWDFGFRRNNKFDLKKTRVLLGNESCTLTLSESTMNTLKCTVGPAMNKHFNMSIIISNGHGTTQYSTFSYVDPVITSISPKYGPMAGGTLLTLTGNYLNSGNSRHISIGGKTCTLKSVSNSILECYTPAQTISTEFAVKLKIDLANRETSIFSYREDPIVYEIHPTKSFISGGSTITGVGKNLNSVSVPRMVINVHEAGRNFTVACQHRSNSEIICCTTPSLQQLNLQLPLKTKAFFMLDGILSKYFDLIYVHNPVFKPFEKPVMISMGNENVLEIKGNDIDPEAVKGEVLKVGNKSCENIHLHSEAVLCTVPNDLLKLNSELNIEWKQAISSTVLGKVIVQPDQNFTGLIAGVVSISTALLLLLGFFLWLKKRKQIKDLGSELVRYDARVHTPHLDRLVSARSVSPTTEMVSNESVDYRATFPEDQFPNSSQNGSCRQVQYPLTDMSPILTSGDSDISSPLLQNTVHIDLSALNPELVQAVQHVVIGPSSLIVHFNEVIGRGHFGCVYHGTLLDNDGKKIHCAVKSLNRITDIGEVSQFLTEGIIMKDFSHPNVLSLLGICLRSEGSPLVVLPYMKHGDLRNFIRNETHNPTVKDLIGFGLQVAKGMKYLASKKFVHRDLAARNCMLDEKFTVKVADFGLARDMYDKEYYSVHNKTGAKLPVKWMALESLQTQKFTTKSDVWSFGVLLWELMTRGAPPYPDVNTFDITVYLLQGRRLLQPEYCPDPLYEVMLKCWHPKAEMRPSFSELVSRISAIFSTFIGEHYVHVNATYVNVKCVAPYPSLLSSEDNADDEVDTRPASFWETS
Sequence of Serine/threonine-protein kinase MRCK gamma (Q6DT37 whole entry): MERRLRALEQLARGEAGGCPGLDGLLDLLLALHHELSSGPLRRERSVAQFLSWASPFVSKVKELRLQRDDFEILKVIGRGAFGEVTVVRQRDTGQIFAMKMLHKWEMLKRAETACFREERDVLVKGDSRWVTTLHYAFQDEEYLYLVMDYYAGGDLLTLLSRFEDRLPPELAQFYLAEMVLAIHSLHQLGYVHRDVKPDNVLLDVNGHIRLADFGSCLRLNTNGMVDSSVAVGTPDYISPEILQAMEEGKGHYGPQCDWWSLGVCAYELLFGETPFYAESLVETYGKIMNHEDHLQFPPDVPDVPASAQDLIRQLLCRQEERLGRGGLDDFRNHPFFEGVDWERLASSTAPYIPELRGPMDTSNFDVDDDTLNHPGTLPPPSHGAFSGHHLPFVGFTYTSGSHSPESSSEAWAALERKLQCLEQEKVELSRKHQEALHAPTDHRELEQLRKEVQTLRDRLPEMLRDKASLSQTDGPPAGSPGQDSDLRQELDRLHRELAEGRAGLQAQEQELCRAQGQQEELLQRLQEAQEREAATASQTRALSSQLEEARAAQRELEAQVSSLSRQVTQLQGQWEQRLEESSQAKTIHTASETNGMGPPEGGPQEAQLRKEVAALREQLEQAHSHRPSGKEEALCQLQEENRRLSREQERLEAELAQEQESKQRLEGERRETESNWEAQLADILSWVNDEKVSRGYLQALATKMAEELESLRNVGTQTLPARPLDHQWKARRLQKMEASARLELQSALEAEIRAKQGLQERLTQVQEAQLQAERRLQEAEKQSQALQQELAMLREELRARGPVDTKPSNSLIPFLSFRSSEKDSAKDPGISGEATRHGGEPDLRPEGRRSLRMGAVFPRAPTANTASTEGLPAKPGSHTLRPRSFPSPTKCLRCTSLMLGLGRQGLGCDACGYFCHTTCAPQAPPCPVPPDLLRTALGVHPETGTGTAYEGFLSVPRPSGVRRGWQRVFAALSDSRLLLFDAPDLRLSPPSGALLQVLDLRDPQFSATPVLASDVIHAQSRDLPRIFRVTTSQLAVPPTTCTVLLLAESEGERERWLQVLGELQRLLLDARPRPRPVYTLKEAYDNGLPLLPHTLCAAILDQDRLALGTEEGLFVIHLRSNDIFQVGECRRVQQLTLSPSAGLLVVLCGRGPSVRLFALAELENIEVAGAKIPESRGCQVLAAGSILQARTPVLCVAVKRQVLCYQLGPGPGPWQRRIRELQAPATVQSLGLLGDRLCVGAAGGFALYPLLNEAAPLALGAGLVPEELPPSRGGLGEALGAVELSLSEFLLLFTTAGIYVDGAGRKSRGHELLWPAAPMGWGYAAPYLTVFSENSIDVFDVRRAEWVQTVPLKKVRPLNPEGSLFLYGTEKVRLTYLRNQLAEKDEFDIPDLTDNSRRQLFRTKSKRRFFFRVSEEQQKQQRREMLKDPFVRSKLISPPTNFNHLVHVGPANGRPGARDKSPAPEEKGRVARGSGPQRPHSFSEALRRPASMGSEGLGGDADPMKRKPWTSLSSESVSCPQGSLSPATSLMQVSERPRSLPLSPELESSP
Sequence of Membrane-associated progesterone receptor component 1 (O00264 whole entry): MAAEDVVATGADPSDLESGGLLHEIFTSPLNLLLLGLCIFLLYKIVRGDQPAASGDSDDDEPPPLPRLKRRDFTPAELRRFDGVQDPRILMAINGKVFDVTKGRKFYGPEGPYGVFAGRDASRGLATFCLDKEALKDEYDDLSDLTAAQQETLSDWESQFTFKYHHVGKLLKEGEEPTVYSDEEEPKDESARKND
Sequence of PAS domain-containing serine/threonine-protein kinase (Q96RG2 whole entry, the tested form may be a part): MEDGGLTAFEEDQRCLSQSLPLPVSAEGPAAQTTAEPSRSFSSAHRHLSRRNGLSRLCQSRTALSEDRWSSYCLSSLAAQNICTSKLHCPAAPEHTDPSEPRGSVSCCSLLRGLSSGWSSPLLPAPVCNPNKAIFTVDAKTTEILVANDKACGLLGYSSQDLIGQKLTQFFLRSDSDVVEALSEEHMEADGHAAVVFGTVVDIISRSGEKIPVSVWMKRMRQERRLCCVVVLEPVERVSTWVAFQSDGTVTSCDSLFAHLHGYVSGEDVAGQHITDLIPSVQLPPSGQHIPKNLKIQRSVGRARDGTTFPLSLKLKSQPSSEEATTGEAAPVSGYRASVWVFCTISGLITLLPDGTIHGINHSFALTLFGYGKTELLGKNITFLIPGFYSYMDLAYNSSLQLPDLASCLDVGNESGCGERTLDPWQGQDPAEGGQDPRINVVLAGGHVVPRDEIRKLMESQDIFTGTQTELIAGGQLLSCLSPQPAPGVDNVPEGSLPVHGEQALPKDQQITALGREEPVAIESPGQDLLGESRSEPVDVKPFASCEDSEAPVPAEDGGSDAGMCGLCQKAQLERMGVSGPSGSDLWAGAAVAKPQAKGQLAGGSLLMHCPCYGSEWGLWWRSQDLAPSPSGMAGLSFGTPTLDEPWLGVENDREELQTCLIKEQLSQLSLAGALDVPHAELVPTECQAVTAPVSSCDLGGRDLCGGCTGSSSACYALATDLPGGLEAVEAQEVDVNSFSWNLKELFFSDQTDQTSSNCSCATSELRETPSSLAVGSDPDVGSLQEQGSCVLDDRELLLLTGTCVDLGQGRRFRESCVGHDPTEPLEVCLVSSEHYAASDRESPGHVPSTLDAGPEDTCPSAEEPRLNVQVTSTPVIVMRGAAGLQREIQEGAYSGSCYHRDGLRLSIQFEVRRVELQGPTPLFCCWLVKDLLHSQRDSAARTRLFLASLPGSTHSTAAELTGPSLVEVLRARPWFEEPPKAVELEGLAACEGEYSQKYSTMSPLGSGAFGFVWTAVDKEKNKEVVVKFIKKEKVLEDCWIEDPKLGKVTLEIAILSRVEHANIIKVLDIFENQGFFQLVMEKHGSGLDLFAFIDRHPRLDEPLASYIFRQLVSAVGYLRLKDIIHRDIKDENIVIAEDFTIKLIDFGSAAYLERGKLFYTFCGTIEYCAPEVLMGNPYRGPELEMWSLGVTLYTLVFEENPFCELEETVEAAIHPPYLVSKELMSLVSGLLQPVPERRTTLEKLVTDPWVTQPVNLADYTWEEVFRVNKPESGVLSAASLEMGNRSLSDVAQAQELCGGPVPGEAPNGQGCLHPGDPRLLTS
Sequence of Dual specificity testis-specific protein kinase 1 (Q15569 whole entry): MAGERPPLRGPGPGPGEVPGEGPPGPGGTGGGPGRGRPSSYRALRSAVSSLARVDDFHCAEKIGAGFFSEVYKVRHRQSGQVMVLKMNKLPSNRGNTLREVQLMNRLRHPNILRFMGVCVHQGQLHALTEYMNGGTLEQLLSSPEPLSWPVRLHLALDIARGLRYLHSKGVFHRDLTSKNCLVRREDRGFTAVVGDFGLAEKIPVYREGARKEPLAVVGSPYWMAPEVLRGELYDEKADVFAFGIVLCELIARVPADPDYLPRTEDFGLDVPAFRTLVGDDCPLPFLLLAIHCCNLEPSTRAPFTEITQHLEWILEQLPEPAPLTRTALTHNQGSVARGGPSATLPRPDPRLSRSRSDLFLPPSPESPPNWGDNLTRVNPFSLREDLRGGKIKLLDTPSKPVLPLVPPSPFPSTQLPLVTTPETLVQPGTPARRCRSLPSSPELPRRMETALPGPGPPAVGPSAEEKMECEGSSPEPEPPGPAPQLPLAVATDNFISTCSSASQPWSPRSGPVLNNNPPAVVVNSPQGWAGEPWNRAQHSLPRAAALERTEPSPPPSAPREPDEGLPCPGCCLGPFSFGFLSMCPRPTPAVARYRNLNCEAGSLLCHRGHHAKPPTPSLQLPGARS

SMILES | Kd [1] | Kd [2] | Kd [3] | Kd [4] | Kd [5] | Kd [6] | Kd [7] | Kd [8] | Kd [9] | Kd [10] | Kd [11] | Kd [12]
N[C@@H]1CCCN(c2c(/C=C3\SC(=O)NC3=O)cccc2-c2ccccc2)C1 | > 30 µM (inactive) | > 30 µM (inactive) | > 30 µM (inactive) | > 30 µM (inactive) | > 30 µM (inactive) | > 30 µM (inactive) | > 30 µM (inactive) | > 30 µM (inactive) | > 30 µM (inactive) |  |  | 
Cn1ncc(Cl)c1-c1cc(C(=O)N[C@H](CN)Cc2cccc(F)c2)sc1Cl [AFURESERTIB] | > 30 µM (inactive) | > 30 µM (inactive) |  |  | > 30 µM (inactive) | > 30 µM (inactive) | > 30 µM (inactive) | > 30 µM (inactive) |  | > 30 µM (inactive) |  | 
Cc1nc(N)sc1-c1ccnc(Nc2ccc(N3CCOCC3)cc2)n1 [CYC-116] |  |  |  |  | > 30 µM (inactive) |  | > 30 µM (inactive) |  | > 30 µM (inactive) |  | > 30 µM (inactive) | > 30 µM (inactive)
CN1CCN(c2ccc3nc(-c4c(N)c5c(F)cccc5[nH]c4=O)[nH]c3c2)CC1 [DOVITINIB] |  |  |  |  |  |  | > 30 µM (inactive) |  |  |  |  | > 30 µM (inactive)
Cc1cc(Nc2cc(N3CCN(C)CC3)nc(/C=C/c3ccccc3)n2)n[nH]1 [ENMD-2076] |  |  |  |  | > 30 µM (inactive) | > 30 µM (inactive) | > 30 µM (inactive) |  | > 30 µM (inactive) | > 30 µM (inactive) |  | > 30 µM (inactive)
COCCNCc1ccc(-c2cc3nccc(Oc4ccc(NC(=S)NC(=O)Cc5ccc(F)cc5)cc4F)c3s2)nc1 [GLESATINIB] | > 30 µM (inactive) | > 30 µM (inactive) |  | > 30 µM (inactive) | > 30 µM (inactive) | > 30 µM (inactive) | > 30 µM (inactive) | > 30 µM (inactive) | > 30 µM (inactive) | > 30 µM (inactive) | > 30 µM (inactive) | > 30 µM (inactive)
CCn1c(-c2nonc2N)nc2c(C#CC(C)(C)O)ncc(OC[C@H]3CCCNC3)c21 [GSK-690693] |  |  |  |  |  |  | > 30 µM (inactive) |  | > 30 µM (inactive) |  |  | 1.07 µM
COC(=O)[C@@]1(O)C[C@H]2O[C@]1(C)n1c3ccccc3c3c4c(c5c6ccccc6n2c5c31)C(=O)NC4 [K-252A] |  | > 30 µM (inactive) | > 30 µM (inactive) | 0.494 µM (active) | > 30 µM (inactive) | > 30 µM (inactive) | > 30 µM (inactive) |  |  | > 30 µM (inactive) | > 30 µM (inactive) | 
Cc1c(F)cc(C(=O)NC2CC2)cc1-c1ccc(C(=O)NCC(C)(C)C)cn1 [LOSMAPIMOD] | > 30 µM (inactive) | > 30 µM (inactive) |  |  | > 30 µM (inactive) | > 30 µM (inactive) |  | > 30 µM (inactive) | > 30 µM (inactive) | > 30 µM (inactive) | > 30 µM (inactive) | > 30 µM (inactive)
Cc1cn(-c2cc(NC(=O)c3ccc(C)c(Nc4nccc(-c5cccnc5)n4)c3)cc(C(F)(F)F)c2)cn1 [NILOTINIB] |  |  |  |  | > 30 µM (inactive) |  | > 30 µM (inactive) |  |  |  | > 30 µM (inactive) | > 30 µM (inactive)
C=CC(=O)N1CCC(Oc2cc3c(Nc4ccc(Cl)c(Cl)c4F)ncnc3cc2OC)CC1 [POZIOTINIB] | 1.19 µM (active) |  | 0.794 µM | > 30 µM (inactive) | > 30 µM (inactive) |  |  | > 30 µM (inactive) |  | > 30 µM (inactive) |  | 
O=C(Nc1cccc(Cl)c1)Nc1ncc(CCNc2ncnc3ccsc23)s1 [SNS-314] |  |  |  |  | > 30 µM (inactive) | > 30 µM (inactive) | > 30 µM (inactive) |  | > 30 µM (inactive) |  | > 30 µM (inactive) | 

Next, values leading:

Kd [1] | Kd [2] | Kd [3] | Kd [4] | Kd [5] | Kd [6] | Kd [7] | Kd [8] | Kd [9] | Kd [10] | Kd [11] | Kd [12] | SMILES
> 30 µM (inactive) | > 30 µM (inactive) | > 30 µM (inactive) | > 30 µM (inactive) | > 30 µM (inactive) | > 30 µM (inactive) | > 30 µM (inactive) | > 30 µM (inactive) | > 30 µM (inactive) | > 30 µM (inactive) |  |  | Cn1cc(-c2ccc(F)c(C(F)(F)F)c2)nc1C1CCN(c2ncnc3[nH]ncc23)CC1 [LY-2584702]
> 30 µM (inactive) | > 30 µM (inactive) | > 30 µM (inactive) | 0.715 µM (active) | > 30 µM (inactive) |  |  | > 30 µM (inactive) | > 30 µM (inactive) |  |  | > 30 µM (inactive) | C1=C/COCc2cc(ccc2OCCN2CCCC2)Nc2nccc(n2)-c2cccc(c2)COC/1 [PACRITINIB]
> 30 µM (inactive) | > 30 µM (inactive) | > 30 µM (inactive) | > 30 µM (inactive) | > 30 µM (inactive) |  | > 30 µM (inactive) |  |  | > 30 µM (inactive) | > 30 µM (inactive) | > 30 µM (inactive) | CNC(=O)c1ccc(C)c(-n2c(C)cc(OCc3ccc(F)cc3F)c(Br)c2=O)c1 [PH-797804]
> 30 µM (inactive) | > 30 µM (inactive) |  | > 30 µM (inactive) |  | > 30 µM (inactive) | > 30 µM (inactive) | > 30 µM (inactive) | > 30 µM (inactive) | > 30 µM (inactive) | > 30 µM (inactive) | > 30 µM (inactive) | O=c1sn(-c2cccc3ccccc23)c(=O)n1Cc1ccccc1 [TIDEGLUSIB]
> 30 µM (inactive) | > 30 µM (inactive) | > 30 µM (inactive) | > 30 µM (inactive) | > 30 µM (inactive) | > 30 µM (inactive) | > 30 µM (inactive) | > 30 µM (inactive) | > 30 µM (inactive) |  |  |  | CN1N=C(N)c2cn([C@@H]3O[C@H](COP(=O)(O)O)[C@@H](O)[C@H]3O)c3ncnc1c23 [TRICIRIBINE PHOSPHATE]
> 30 µM (inactive) | > 30 µM (inactive) | > 30 µM (inactive) | > 30 µM (inactive) |  | > 30 µM (inactive) | > 30 µM (inactive) | > 30 µM (inactive) | > 30 µM (inactive) | > 30 µM (inactive) |  | > 30 µM (inactive) | CC(C)Nc1cc(-c2c[nH]c(C(=O)N[C@H](CO)c3cccc(Cl)c3)c2)c(Cl)cn1 [ULIXERTINIB]
> 30 µM (inactive) | > 30 µM (inactive) |  |  | > 30 µM (inactive) | > 30 µM (inactive) | > 30 µM (inactive) | > 30 µM (inactive) | > 30 µM (inactive) | > 30 µM (inactive) |  |  | CCn1c(=O)c(-c2cc[nH]n2)cc2c(C)nc(N)nc21 [VOXTALISIB]
